In patent publication US10030047B2 (Hoffmann-La Roche Inc., priority 2015, dated 2018):
In brackets after ≈: the same amount, converted by molar mass.

tested on: A. baumannii strain ATCC19606; test: Minimum inhibitory concentration (MIC) determination, microbroth dilution (CLSI); assay type: cell-based; conditions: Acinetobacter baumannii; A. baumannii ATCC19606; CAMHB; read after 20 hours; >=80% growth inhibition; read-out: ATCC19606 MIC
Method in brief: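 CLSI broth microdilution in cation-adjusted Mueller Hinton broth with twofold compound dilutions and ~5×10^5 CFU/ml inoculum, incubated at 35±2 °C. MIC read after 20 h as lowest concentration inhibiting ≥80% of growth, by eye and OD 600 nm.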

MIC [µg/mL] | Compound
32 (≈ 43.3 µM) | CC(C)C[C@@H]1NCc2cccnc2Sc2c(Cl)cc(Cl)cc2CNC(=O)[C@H](Cc2c[nH]c3ccccc23)N(C)C(=O)[C@H](CCCCN)NC1=O [Example 101, (11S,14S,17S)-14-(4-Amino-butyl)-23,25-dichloro-17-(1H-indol-3-ylmethyl)-11-isobutyl-16-methyl-2-thia-4,10,13,16,19-pentaaza-tricyclo[19.4.0.0*3,8*]pentacosa-1(25),3,5,7,21,23-hexaene-12,15,18-trione]
0.5 (≈ 0.615 µM) | COc1cc(-c2cc(Cl)c3c(c2)CNC(=O)[C@H](Cc2c[nH]c4ccccc24)N(C)C(=O)[C@H](CCCCN)NC(=O)[C@H](CCCN)NCc2cccnc2S3)ccn1 [Example 102, (11S,14S,17S)-14-(4-Amino-butyl)-11-(3-amino-propyl)-25-chloro-17-(1H-indol-3-ylmethyl)-23-(2-methoxy-pyridin-4-yl)-16-methyl-2-thia-4,10,13,16,19-pentaaza-tricyclo[19.4.0.0*3,8*]pentacosa-1(25),3,5,7,21,23-hexaene-12,15,18-trione]
0.25 (≈ 0.332 µM) | CN1C(=O)[C@H](CCCCN)NC(=O)[C@H](CCC(N)=O)NCc2cccnc2Sc2c(Cl)cc(Cl)cc2CNC(=O)[C@@H]1Cc1c[nH]c2ccccc12 [Example 103, 3-[(11S,14S,17S)-14-(4-Amino-butyl)-23,25-dichloro-17-(1H-indol-3-ylmethyl)-16-methyl-12,15,18-trioxo-2-thia-4,10,13,16,19-pentaaza-tricyclo[19.4.0.0*3,8*]pentacosa-1(25),3,5,7,21,23-hexaen-11-yl]-propionamide]
2 (≈ 2.7 µM) | CN1C(=O)[C@H](CCCCN)NC(=O)[C@H](CCCN)NCc2ncccc2Sc2c(Cl)ccc(Cl)c2CNC(=O)[C@@H]1Cc1c[nH]c2ccccc12 [Example 104, (11S,14S,17S)-14-(4-Amino-butyl)-11-(3-amino-propyl)-22,25-dichloro-17-(1H-indol-3-ylmethyl)-16-methyl-2-thia-7,10,13,16,19-pentaaza-tricyclo[19.4.0.0*3,8*]pentacosa-1(21),3,5,7,22,24-hexaene-12,15,18-trione]
1 (≈ 1.26 µM) | Cc1cc(-c2cc(Cl)c3c(c2)CNC(=O)[C@H](Cc2c[nH]c4ccccc24)N(C)C(=O)[C@H](CCCCN)NC(=O)[C@H](CCCN)NCc2cccnc2S3)ccn1 [Example 105, (11S,14S,17S)-14-(4-Amino-butyl)-11-(3-amino-propyl)-25-chloro-17-(1H-indol-3-ylmethyl)-16-methyl-23-(2-methyl-pyridin-4-yl)-2-thia-4,10,13,16,19-pentaaza-tricyclo[19.4.0.0*3,8*]pentacosa-1(25),3,5,7,21,23-hexaene-12,15,18-trione]
2 (≈ 2.75 µM) | C[C@H](O)[C@@H]1NCc2cccnc2Sc2c(Cl)cc(Cl)cc2CNC(=O)[C@H](Cc2c[nH]c3ccccc23)N(C)C(=O)[C@H](CCCCN)NC1=O [Example 106, (11S,14S,17S)-14-(4-Amino-butyl)-23,25-dichloro-11-((S)-1-hydroxy-ethyl)-17-(1H-indol-3-ylmethyl)-16-methyl-2-thia-4,10,13,16,19-pentaaza-tricyclo[19.4.0.0*3,8*]pentacosa-1(25),3,5,7,21,23-hexaene-12,15,18-trione]
8 (≈ 11.3 µM) | CN1C(=O)[C@H](CCCCN)NC(=O)C(C)(C)NCc2cccnc2Sc2c(Cl)cc(Cl)cc2CNC(=O)[C@@H]1Cc1c[nH]c2ccccc12 [Example 107, (14S,17S)-14-(4-Amino-butyl)-23,25-dichloro-17-(1H-indol-3-ylmethyl)-11,11,16-trimethyl-2-thia-4,10,13,16,19-pentaaza-tricyclo[19.4.0.0*3,8*]pentacosa-1(25),3,5,7,21,23-hexaene-12,15,18-trione]
16 (≈ 19.4 µM) | CN1C(=O)[C@H](CCCCN)NC(=O)[C@H](Cc2ccc3ccccc3c2)NCc2cccnc2Sc2c(Cl)cc(Cl)cc2CNC(=O)[C@@H]1Cc1c[nH]c2ccccc12 [Example 108, (11S,14S,17S)-14-(4-Amino-butyl)-23,25-dichloro-17-(1H-indol-3-ylmethyl)-16-methyl-11-naphthalen-2-ylmethyl-2-thia-4,10,13,16,19-pentaaza-tricyclo[19.4.0.0*3,8*]pentacosa-1(25),3,5,7,21,23-hexaene-12,15,18-trione]
2 (≈ 2.51 µM) | CN1C(=O)[C@H](CCCCN)NC(=O)[C@H](CCCN)NCc2cccnc2Sc2c(Cl)cc(-c3ccc(N)nc3)cc2CNC(=O)[C@@H]1Cc1c[nH]c2ccccc12 [Example 109, (11S,14S,17S)-14-(4-Amino-butyl)-11-(3-amino-propyl)-23-(6-amino-pyridin-3-yl)-25-chloro-17-(1H-indol-3-ylmethyl)-16-methyl-2-thia-4,10,13,16,19-pentaaza-tricyclo[19.4.0.0*3,8*]pentacosa-1(25),3(8),4,6,21,23-hexaene-12,15,18-trione]
0.5 (≈ 0.675 µM) | CN1C(=O)[C@H](CCCCN)NC(=O)[C@H](CCCN)NCc2nccnc2Sc2c(Cl)ccc(Cl)c2CNC(=O)[C@@H]1Cc1c[nH]c2ccccc12 [Example 110, (11S,14S,17S)-14-(4-Amino-butyl)-11-(3-amino-propyl)-22,25-dichloro-17-(1H-indol-3-ylmethyl)-16-methyl-2-thia-4,7,10,13,16,19-hexaaza-tricyclo[19.4.0.0*3,8*]pentacosa-1(25),3,5,7,21,23-hexaene-12,15,18-trione]
1 (≈ 1.29 µM) | CN1C(=O)[C@H](CCCCN)NC(=O)[C@H](CCCN)NCc2ncccc2Sc2c(Cl)ccc(C(F)(F)F)c2CNC(=O)[C@@H]1Cc1c[nH]c2ccccc12 [Example 111, (11S,14S,17S)-14-(4-Amino-butyl)-11-(3-amino-propyl)-25-chloro-17-(1H-indol-3-ylmethyl)-16-methyl-22-trifluoromethyl-2-thia-7,10,13,16,19-pentaaza-tricyclo[19.4.0.0*3,8*]pentacosa-1(25),3(8),4,6,21,23-hexaene-12,15,18-trione]
0.5 (≈ 0.647 µM) | CN1C(=O)[C@H](CCCCN)NC(=O)[C@H](CCCN)NCc2ncccc2Sc2c(Cl)cc(C(F)(F)F)cc2CNC(=O)[C@@H]1Cc1c[nH]c2ccccc12 [Example 112, (11S,14S,17S)-14-(4-Amino-butyl)-11-(3-amino-propyl)-25-chloro-17-(1H-indol-3-ylmethyl)-16-methyl-23-trifluoromethyl-2-thia-7,10,13,16,19-pentaaza-tricyclo[19.4.0.0*3,8*]pentacosa-1(25),3,5,7,21,23-hexaene-12,15,18-trione]
2 (≈ 2.84 µM) | CN1C(=O)[C@H](CCCCN)NC(=O)[C@H](CCCN)NCc2ccccc2Sc2c(ccnc2Cl)CNC(=O)[C@@H]1Cc1c[nH]c2ccccc12 [Example 113, (12S,15S,18S)-15-(4-Amino-butyl)-18-(3-amino-propyl)-4-chloro-12-(1H-indol-3-ylmethyl)-13-methyl-2-thia-5,10,13,16,19-pentaaza-tricyclo[19.4.0.0*3,8*]pentacosa-1(25),3,5,7,21,23-hexaene-11,14,17-trione]
32 (≈ 38.9 µM) | CN1C(=O)[C@H](CCCCN)NC(=O)[C@H](Cc2cccc3ccccc23)NCc2cccnc2Sc2c(Cl)cc(Cl)cc2CNC(=O)[C@@H]1Cc1c[nH]c2ccccc12 [Example 114, (11S,14S,17S)-14-(4-Amino-butyl)-23,25-dichloro-17-(1H-indol-3-ylmethyl)-16-methyl-11-naphthalen-1-ylmethyl-2-2-thia-4,10,13,16,19-pentaaza-tricyclo[19.4.0.0*3,8*]pentacosa-1(25),3,5,7,21,23-hexaene-12,15,18-trione]
2 (≈ 2.27 µM) | CN1CCN(c2cc(-c3cc(Cl)c4c(c3)CNC(=O)[C@H](Cc3c[nH]c5ccccc35)N(C)C(=O)[C@H](CCCCN)NC(=O)[C@H](CCCN)NCc3cccnc3S4)ccn2)CC1 [Example 115, (11S,14S,17S)-14-(4-Amino-butyl)-11-(3-amino-propyl)-25-chloro-17-(1H-indol-3-ylmethyl)-16-methyl-23-[2-(4-methyl-piperazin-1-yl)-pyridin-4-yl]-2-thia-4,10,13,16,19-pentaaza-tricyclo[19.4.0.0*3,8*]pentacosa-1(25),3,5,7,21,23-hexaene-12,15,18-trione]
8 (≈ 10.7 µM) | CN1C(=O)[C@H](CCCCN)NC(=O)[C@H](CCCN)NCc2cccnc2Sc2c(Cl)cc(B(O)O)cc2CNC(=O)[C@@H]1Cc1c[nH]c2ccccc12 [Example 116, {(7S,10S,13S)-10-(4-aminobutyl)-7-(3-aminopropyl)-20-chloro-13-[(1H-indol-3-yl)methyl]-12-methyl-8,11,14-trioxo-5,6,7,8,9,10,11,12,13,14,15,16-dodecahydropyrido[2,3-b][1,5,8,11,14]benzothiatetraazacycloheptadecin-18-yl}boronic acid]
0.5 (≈ 0.633 µM) | CN1C(=O)[C@H](CCCCN)NC(=O)[C@H](COCCN)NCc2cccnc2Sc2c(Cl)ccc(C(F)(F)F)c2CNC(=O)[C@@H]1Cc1c[nH]c2ccccc12 [Example 118, (11S,14S,17S)-14-(4-Amino-butyl)-11-(2-amino-ethoxymethyl)-25-chloro-17-(1H-indol-3-ylmethyl)-16-methyl-22-trifluoromethyl-2-thia-4,10,13,16,19-pentaaza-tricyclo[19.4.0.0*3,8*]pentacosa-1(25),3,5,7,21,23-hexaene-12,15,18-trione]
4 (≈ 5.05 µM) | CN1C(=O)[C@H](COCCN)NC(=O)[C@H](COCCN)NCc2cccnc2Sc2c(Cl)ccc(C(F)(F)F)c2CNC(=O)[C@@H]1Cc1c[nH]c2ccccc12 [Example 119, (11S,14S,17S)-11,14-Bis-(2-amino-ethoxymethyl)-25-chloro-17-(1H-indol-3-ylmethyl)-16-methyl-22-trifluoromethyl-2-thia-4,10,13,16,19-pentaaza-tricyclo[19.4.0.0*3,8*]pentacosa-1(25),3,5,7,21,23-hexaene-12,15,18-trione]
0.5 (≈ 0.645 µM) | CN1C(=O)[C@H](COCCN)NC(=O)[C@H](CCCN)NCc2cccnc2Sc2c(Cl)ccc(C(F)(F)F)c2CNC(=O)[C@@H]1Cc1c[nH]c2ccccc12 [Example 120, (11S,14S,17S)-14-(2-Amino-ethoxymethyl)-11-(3-amino-propyl)-25-chloro-17-(1H-indol-3-ylmethyl)-16-methyl-22-trifluoromethyl-2-thia-4,10,13,16,19-pentaaza-tricyclo[19.4.0.0*3,8*]pentacosa-1(25),3,5,7,21,23-hexaene-12,15,18-trione]
